The text below walks through data of patent EP3046573B1, “AMYLIN ANALOGUES” (Zealand Pharma A/S, priority 2013, dated 2015).

Series [1] in a line: Solubility assessment (turbidity absorbance at 325 nm). It counts as physicochemical. The note with it: stock 2 mg/ml diluted 1:1, ambient temperature (typically 25°C), n=1; for Solubility, Acetate buffer pH 4: 100 mM acetate buffer pH 4.0; for Solubility, Acetate buffer pH 5: 100 mM acetate buffer pH 5.0; for Solubility, Histidine buffer pH 6: 100 mM histidine buffer pH 6.0; for Solubility, Histidine buffer pH 7: 100 mM histidine buffer pH 7.0; for Solubility, Phosphate buffer pH 6: 100 mM phosphate buffer pH 6.0; for Solubility, Phosphate buffer pH 7: 100 mM phosphate buffer pH 7.0; for Solubility, Phosphate buffer pH 7.5: 100 mM phosphate buffer pH7.5. An outline of the steps: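 Turbidity read as absorbance at 325 nm (also 280 nm), single samples at ambient temperature (typically 25°C); ≤ 0.02 units counts as ≥ 1 mg/ml soluble. Samples made by 1:1 dilution of a 2 mg/ml acidic stock into 100 mM acetate, histidine or phosphate buffers, pH 4.0–7.5.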

The target in series [2] is T1, human calcitonin receptor (hCTR2) (Homo sapiens, UniProt P30988).
T1 construct: expressed in transfected cells
T1 sequence (P30988 25-474): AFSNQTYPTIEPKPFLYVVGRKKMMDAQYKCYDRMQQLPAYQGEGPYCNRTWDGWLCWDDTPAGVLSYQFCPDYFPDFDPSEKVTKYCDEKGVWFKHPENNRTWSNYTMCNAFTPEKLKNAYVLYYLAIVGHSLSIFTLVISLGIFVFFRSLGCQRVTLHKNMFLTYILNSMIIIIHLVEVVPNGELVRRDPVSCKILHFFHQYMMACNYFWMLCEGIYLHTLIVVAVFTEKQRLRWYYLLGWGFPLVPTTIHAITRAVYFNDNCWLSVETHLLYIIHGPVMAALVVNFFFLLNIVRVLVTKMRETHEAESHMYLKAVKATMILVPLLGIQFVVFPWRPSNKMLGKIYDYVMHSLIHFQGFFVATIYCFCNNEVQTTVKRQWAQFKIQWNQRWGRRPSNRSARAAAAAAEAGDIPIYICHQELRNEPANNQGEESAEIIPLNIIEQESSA
Nature of the series: hCTR2 assay: induction of cAMP (AlphaScreen cAMP Assay kit) in COS7 cells expressing hCTR2. The class given is cell-based. The note with it: cAMP induction in COS7 cells expressing hCTR2; average of a minimum of 3 determinations; read-out: hCTR2 EC50. An outline of the steps:
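cAMP read-out by AlphaScreen after cell lysis; EC50 and % efficacy vs pramlintide from 4-parameter logistic fitting. Agonist stimulation: hCTR2-COS7 stable cells, 15 min, 37° C, 100 µM IBMX, 0.1% casein, Tyrode/HEPES pH 7.4.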
On the technique in general: Alpha assays give light when donor and acceptor beads are brought close together.

Series [3] concerns the target T2, human amylin receptor 3 (hAMYR3) consisting of hCTR2 co-expressed with human Receptor Activity Modifying Protein 3 (hRAMP3) (Homo sapiens, UniProt O60896+P30988).
T2 construct: expressed in transfected cells
T2 sequence (P30988 25-474): T1 sequence (P30988 25-474)
T2 sequence (O60896 24-148 partner): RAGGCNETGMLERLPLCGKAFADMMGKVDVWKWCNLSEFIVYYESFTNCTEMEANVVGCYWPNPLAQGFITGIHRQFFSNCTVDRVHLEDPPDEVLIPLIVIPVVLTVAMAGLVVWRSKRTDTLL
Kind of series: hAMYR3 assay: induction of cAMP (AlphaScreen cAMP Assay kit) in COS7 cells expressing hAMYR3. The note with it: cAMP induction in COS7 cells expressing hAMYR3; average of a minimum of 3 determinations; read-out: hAMY R3 EC50. The class given is cell-based. An outline of the steps:
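cAMP accumulation read by AlphaScreen in lysates of RAMP-naive COS7 cells stably transfected with hCTR2 plus hRAMP3. Cells exposed to peptide dilutions for 15 min, 37° C, with 100 µM IBMX; 4PL fitting gave EC50 and efficacy relative to pramlintide.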

Numbered stars: 1 amine (or outer) side, 2 acyl side, 3 side chain; on linkers, the order of the positions; unused ones are H or OH. Bridge positions count the residues as written; N and C are the ends. Square brackets hold non-standard residues; d marks the D form. Peptide text beside a SMILES is read from it. * marks the point of attachment. C20 diacid = O=C(O)CCCCCCCCCCCCCCCCCCC(=O)*; γGlu = O=C(O)[C@H](CCC(=O)[*:2])N[*:1]; Hyp = O=C(O)[C@@H]1C[C@@H](O)CN1; NMeI = CC[C@H](C)[C@H](NC)C(=O)O; Sar = CNCC(=O)O

As for `CC[C@H](C)[C@@H](C(=O)N[C@@H](CC(C)C)C(=O)N[C@@H](CO)C(=O)N[C@@H](CO)C(=O)N[C@H](C(=O)N[C@@H](CCC(=O)O)C(=O)N[C@H](C(=O)NCC(=O)N[C@@H](CO)C(=O)N[C@@H](CCC(=O)O)C(=O)N[C@H](C(=O)N1CCC[C@H]1C(N)=O)[C@@H](C)O)C(C)C)[C@@H](C)O)N(C)C(=O)[C@H](C)NC(=O)CN(C)C(=O)[C@H](Cc1ccccc1)NC(=O)[C@H](CO)NC(=O)[C@H](CO)NC(=O)[C@H](CCCNC(=N)N)NC(=O)[C@H](Cc1c[nH]cn1)NC(=O)[C@H](CC(C)C)NC(=O)[C@H](Cc1ccccc1)NC(=O)[C@H](CCC(=O)O)NC(=O)[C@H](C)NC(=O)[C@H](CC(C)C)NC(=O)[C@H](CCCNC(=N)N)NC(=O)[C@H](CCC(=O)O)NC(=O)[C@@H](NC(=O)[C@H](C)NC(=O)[C@@H]1CSSC[C@H](NC(=O)[C@H](Cc2c[nH]c3ccccc23)NC(=O)CC[C@H](NC(=O)CCCCCCCCCCCCCCCCCCC(=O)O)C(=O)O)C(=O)NCC(=O)N[C@@H]([C@@H](C)O)C(=O)N[C@@H](C)C(=O)N[C@@H]([C@@H](C)O)C(=O)N1)[C@@H](C)O` [Compound 161, [19CD]-isoGlu-WC()GTATC()ATERLAEFLHRSSF-Gly(Me)-A-Ile(Me)-LSSTEVGSETP-NH2] ({C20 diacid-γGlu}-WCGTATCATERLAEFLHRSSF[Sar]A[NMeI]LSSTEVGSETP-NH2; disulfide 2-7), in series [1], the “Solubility, Acetate buffer pH 4” value is given as “II (II indicates solubility ≤ 1 mg/ml)”; the “Solubility, Acetate buffer pH 5” value was “SS (SS indicates solubility ≥ 1mg/ml)”; the “Solubility, Histidine buffer pH 6” value is on record as “SS (SS indicates solubility ≥ 1mg/ml)”; the “Solubility, Histidine buffer pH 7” value is given as “SS (SS indicates solubility ≥ 1mg/ml)”. Besides, in series [1], the “Solubility, Phosphate buffer pH 6” value is on record as “SS (SS indicates solubility ≥ 1mg/ml)”; the “Solubility, Phosphate buffer pH 7” value was “SS (SS indicates solubility ≥ 1mg/ml)”; the “Solubility, Phosphate buffer pH 7.5” value was “SS (SS indicates solubility ≥ 1mg/ml)”. Also, in series [2], the 50% effective concentration (EC50) – broadly, the concentration at which the effect is half-maximal – is 0.084 nM. The EC50 in series [3] is 0.19 nM.
For `CC[C@H](C)[C@@H](C(=O)N[C@@H](CC(C)C)C(=O)N[C@@H](CO)C(=O)N[C@@H](CO)C(=O)N[C@H](C(=O)N[C@@H](CCC(=O)O)C(=O)N[C@H](C(=O)NCC(=O)N[C@@H](CO)C(=O)N[C@@H](CCC(=O)O)C(=O)N[C@H](C(=O)N1CCC[C@H]1C(N)=O)[C@@H](C)O)C(C)C)[C@@H](C)O)N(C)C(=O)[C@H](C)NC(=O)CN(C)C(=O)[C@H](Cc1ccccc1)NC(=O)[C@H](CO)NC(=O)[C@H](CO)NC(=O)[C@H](CCCNC(=N)N)NC(=O)[C@H](Cc1c[nH]cn1)NC(=O)[C@H](CC(C)C)NC(=O)[C@H](Cc1ccccc1)NC(=O)[C@H](CCC(=O)O)NC(=O)[C@H](C)NC(=O)[C@H](CC(C)C)NC(=O)[C@H](CCCNC(=N)N)NC(=O)[C@H](CCC(=O)O)NC(=O)[C@@H](NC(=O)[C@H](C)NC(=O)[C@@H]1CSSC[C@H](NC(=O)[C@H](CCCNC(=N)N)NC(=O)CC[C@H](NC(=O)CCCCCCCCCCCCCCCCCCC(=O)O)C(=O)O)C(=O)NCC(=O)N[C@@H]([C@@H](C)O)C(=O)N[C@@H](C)C(=O)N[C@@H]([C@@H](C)O)C(=O)N1)[C@@H](C)O` [Compound 162, [19CD]-isoGlu-RC()GTATC()ATERLAEFLHRSSF-Gly(Me)-A-Ile(Me)-LSSTEVGSETP-NH2] ({C20 diacid-γGlu}-RCGTATCATERLAEFLHRSSF[Sar]A[NMeI]LSSTEVGSETP-NH2; disulfide 2-7), in series [1], the “Solubility, Acetate buffer pH 4” value was “SS (SS indicates solubility ≥ 1mg/ml)”; the “Solubility, Acetate buffer pH 5” value is recorded as “SS (SS indicates solubility ≥ 1mg/ml)”; the “Solubility, Histidine buffer pH 6” value is listed as “SS (SS indicates solubility ≥ 1mg/ml)”; the “Solubility, Histidine buffer pH 7” value was “SS (SS indicates solubility ≥ 1mg/ml)”. In series [1], the “Solubility, Phosphate buffer pH 6” value is on record as “SS (SS indicates solubility ≥ 1mg/ml)”; the “Solubility, Phosphate buffer pH 7” value is reported as “SS (SS indicates solubility ≥ 1mg/ml)”; the “Solubility, Phosphate buffer pH 7.5” value is reported as “SS (SS indicates solubility ≥ 1mg/ml)”. Moreover, the half-maximal effective concentration (EC50) in series [2] came out at 0.049 nM. For the same molecule, in series [3], the half-maximal effective concentration (EC50) is 0.14 nM.
With `CC[C@H](C)[C@@H](C(=O)N[C@@H](CC(C)C)C(=O)N[C@@H](CO)C(=O)N[C@@H](CO)C(=O)N[C@H](C(=O)N[C@@H](CCC(=O)O)C(=O)N[C@H](C(=O)NCC(=O)N[C@@H](CO)C(=O)N[C@@H](CCC(=O)O)C(=O)N[C@H](C(=O)N1C[C@H](O)C[C@H]1C(N)=O)[C@@H](C)O)C(C)C)[C@@H](C)O)N(C)C(=O)[C@H](C)NC(=O)CN(C)C(=O)[C@H](Cc1ccccc1)NC(=O)[C@H](CO)NC(=O)[C@H](CO)NC(=O)[C@H](CCCNC(=N)N)NC(=O)[C@H](Cc1c[nH]cn1)NC(=O)[C@H](CC(C)C)NC(=O)[C@H](Cc1ccccc1)NC(=O)[C@H](CCC(=O)O)NC(=O)[C@H](C)NC(=O)[C@H](CC(C)C)NC(=O)[C@H](CCCNC(=N)N)NC(=O)[C@H](CCC(=O)O)NC(=O)[C@@H](NC(=O)[C@H](C)NC(=O)[C@@H]1CSSC[C@H](NC(=O)[C@H](CCCNC(=N)N)NC(=O)CC[C@H](NC(=O)CCCCCCCCCCCCCCCCCCC(=O)O)C(=O)O)C(=O)NCC(=O)N[C@@H]([C@@H](C)O)C(=O)N[C@@H](C)C(=O)N[C@@H]([C@@H](C)O)C(=O)N1)[C@@H](C)O` [Compound 166, [19CD]-isoGlu-RC()GTATC()ATERLAEFLHRSSF-Gly(Me)-A-Ile(Me)-LSSTEVGSET-Hyp-NH2] ({C20 diacid-γGlu}-RCGTATCATERLAEFLHRSSF[Sar]A[NMeI]LSSTEVGSET[Hyp]-NH2; disulfide 2-7), in series [1], the “Solubility, Acetate buffer pH 4” value is on record as “SS (SS indicates solubility ≥ 1mg/ml)”; the “Solubility, Acetate buffer pH 5” value is on record as “SS (SS indicates solubility ≥ 1mg/ml)”; the “Solubility, Histidine buffer pH 6” value was “SS (SS indicates solubility ≥ 1mg/ml)”; the “Solubility, Histidine buffer pH 7” value is “SS (SS indicates solubility ≥ 1mg/ml)”. For the same molecule, in series [1], the “Solubility, Phosphate buffer pH 6” value is “SS (SS indicates solubility ≥ 1mg/ml)”; the “Solubility, Phosphate buffer pH 7” value is recorded as “SS (SS indicates solubility ≥ 1mg/ml)”; the “Solubility, Phosphate buffer pH 7.5” value is listed as “SS (SS indicates solubility ≥ 1mg/ml)”. In series [2], the EC50 stood at 0.074 nM. Moreover, in series [3], the EC50 was found to be 0.11 nM.
